Source: ChEMBL document CHEMBL1122447, “2-Acetylpyridine thiosemicarbazones. 5. 1-[1-(2-Pyridyl)ethyl]-3-thiosemicarbazides as potential antimalarial agents” (1983)

Columns and labels:
[1] = system: Plasmodium berghei; experiment: Increased mean survival time in drug-sensitive Plasmodium berghei in mice (Mus musculus) at 80 mg/kg dose; type: functional
[2] = system: Plasmodium berghei; experiment: Increased mean survival time in drug-sensitive Plasmodium berghei infected mice (Mus musculus) at 320 mg/kg; cured 3 of 5; type: functional, organism-based; set-up: dose 320 mg/kg
[3] = system: Plasmodium berghei; experiment: Increased mean survival time in drug-sensitive Plasmodium berghei infected mice (Mus musculus) at 40 mg/kg dose; type: functional
[4] = system: Plasmodium berghei; experiment: Increased mean survival time in drug-sensitive Plasmodium berghei infected mice (Mus musculus) at 640 mg/kg; cured 2 of 5; type: functional, organism-based; set-up: dose 640 mg/kg
[5] = system: Plasmodium berghei; experiment: Increased mean survival time in drug-sensitive Plasmodium berghei infected mice (Mus musculus) at 160 mg/kg; cured 1 of 5; type: functional, organism-based; set-up: dose 160 mg/kg
[6] = system: Plasmodium berghei; experiment: Increased mean survival time in drug-sensitive Plasmodium berghei infected mice (Mus musculus) at 20 mg/kg dose; type: functional
[7] = system: Plasmodium berghei; experiment: Increased mean survival time in drug-sensitive Plasmodium berghei infected mice (Mus musculus) at 640 mg/kg dose; type: functional
[8] = system: Plasmodium berghei; experiment: Increased mean survival time in drug-sensitive Plasmodium berghei infected mice (Mus musculus) at 160 mg/kg; cured 2 of 5; type: functional, organism-based; set-up: dose 160 mg/kg
[9] = system: Plasmodium berghei; experiment: Increased mean survival time in drug-sensitive Plasmodium berghei infected mice (Mus musculus) at 320 mg/kg; cured 4 of 5
[10] = system: Plasmodium berghei; experiment: Antimalarial activity against Plasmodium berghei infected mice (Mus musculus) at 160 mg/kg; cured 1 of 5; type: functional, organism-based; set-up: dose 160 mg/kg
[11] = system: Plasmodium berghei; experiment: Antimalarial activity against Plasmodium berghei infected mice (Mus musculus) at 160 mg/kg; toxic in 3 of 5; type: functional, organism-based; set-up: dose 160 mg/kg
[12] = system: Plasmodium berghei; experiment: Antimalarial activity against Plasmodium berghei infected mice (Mus musculus) at 40 mg/kg; cured 1 of 5; type: functional, organism-based; set-up: dose 40 mg/kg
[13] = system: Plasmodium berghei; experiment: Antimalarial activity against Plasmodium berghei infected mice (Mus musculus) at 640 mg/kg; toxic in 5 of 5; type: functional, organism-based; set-up: dose 640 mg/kg
[14] = system: Plasmodium berghei; experiment: Increased mean survival time in drug-sensitive Plasmodium berghei infected mice (Mus musculus) at 640 mg/kg; toxic in 5 of 5; type: functional, organism-based; set-up: dose 640 mg/kg
[15] = system: Plasmodium berghei; experiment: Increased mean survival time in drug-sensitive Plasmodium berghei infected mice (Mus musculus) at 160 mg/kg; toxic in 5 of 5; type: functional, organism-based; set-up: dose 160 mg/kg
[16] = system: Plasmodium berghei; experiment: Antimalarial activity as increased MST in Plasmodium berghei infected mice (Mus musculus) at 160 mg/kg; type: functional
[17] = system: Plasmodium berghei; experiment: Antimalarial activity as increased MST in Plasmodium berghei infected mice (Mus musculus) at 40 mg/kg; type: functional
[18] = system: Plasmodium berghei; experiment: Antimalarial activity as increased MSTin Plasmodium berghei infected mice (Mus musculus) at 640 mg/kg; Toxic in 3 of 5; type: functional
[19] = system: Plasmodium berghei; experiment: Increased mean survival time in drug-sensitive Plasmodium berghei infected mice (Mus musculus) at 80 mg/kg; active; type: functional
[20] = system: Plasmodium berghei; experiment: Increased mean survival time in drug-sensitive Plasmodium berghei infected mice (Mus musculus) at 160 mg/kg; cured 3 of 5; type: functional, organism-based; set-up: dose 160 mg/kg
[21] = system: Plasmodium berghei; experiment: Antimalarial activity against Plasmodium berghei infected mice (Mus musculus) at 160 mg/kg; toxic in 1 of 5; type: functional, organism-based; set-up: dose 160 mg/kg
[22] = system: Plasmodium berghei; experiment: Antimalarial activity against Plasmodium berghei infected mice (Mus musculus) at 20 mg/kg; toxic in 1 of 5; type: functional, organism-based; set-up: dose 20 mg/kg
[23] = system: Plasmodium berghei; experiment: Antimalarial activity against Plasmodium berghei infected mice (Mus musculus) at 320 mg/kg; toxic in 2 of 5; type: functional, organism-based; set-up: dose 320 mg/kg
[24] = system: Plasmodium berghei; experiment: Antimalarial activity against Plasmodium berghei infected mice (Mus musculus) at 320 mg/kg; toxic in 3 of 5; type: functional, organism-based; set-up: dose 320 mg/kg
[25] = system: Plasmodium berghei; experiment: Antimalarial activity against Plasmodium berghei infected mice (Mus musculus) at 80 mg/kg; toxic in 1 of 5; type: functional, organism-based; set-up: dose 80 mg/kg
[26] = system: Plasmodium berghei; experiment: Increased mean survival time in drug-sensitive Plasmodium berghei infected mice (Mus musculus) at 320 mg/kg; toxic in 4 of 5; type: functional, organism-based; set-up: dose 320 mg/kg
[27] = system: Plasmodium berghei; experiment: Increased mean survival time in drug-sensitive Plasmodium berghei infected mice (Mus musculus) at 160 mg/kg; toxic in 1 of 5; type: functional, organism-based; set-up: dose 160 mg/kg
[28] = system: Plasmodium berghei; experiment: Increased mean survival time in drug-sensitive Plasmodium berghei infected mice (Mus musculus) at 320 mg/kg; cured 2 of 5; type: functional, organism-based; set-up: dose 320 mg/kg
[29] = system: Plasmodium berghei; experiment: Increase in mean survival time in drug-sensitive Plasmodium berghei infected mice (Mus musculus) at 160 mg/kg dose; type: functional
[30] = system: Plasmodium berghei; experiment: Antimalarial activity against Plasmodium berghei infected mice (Mus musculus) at 160 mg/kg; toxic in 5 of 5; type: functional, organism-based; set-up: dose 160 mg/kg
[31] = system: Plasmodium berghei; experiment: Increased mean survival time in drug-sensitive Plasmodium berghei infected mice (Mus musculus) at 5 mg/kg; cured 2 of 5; type: functional
[32] = system: Plasmodium berghei; experiment: Antimalarial activity against Plasmodium berghei infected mice (Mus musculus) at 40 mg/kg; toxic in 5 of 5; type: functional, organism-based; set-up: dose 40 mg/kg
[33] = system: Plasmodium berghei; experiment: Increased MST in drug-sensitive Plasmodium berghei infected mice (Mus musculus) at 10 mg/kg; […]; type: functional, organism-based; set-up: dose 10 mg/kg
[34] = system: Plasmodium berghei; experiment: Increased mean survival time in drug-sensitive Plasmodium berghei infected mice (Mus musculus) at 40 mg/kg; toxic in 2 of 5; type: functional, organism-based; set-up: dose 40 mg/kg

## CC(N/N=C(\[SeH])N1CCCCCC1)c1ccccn1 (stereo unspecified)
[1]
  Survival time: 6.1 days
[2]
  Survival time: Cured 3 of 5 mice; toxic in 2 of 5 mice
[3]
  Survival time: 5.9 days
[4]
  Survival time: Cured 2 of 5 mice; toxic in 2 of 5 mice
[5]
  Survival time: Cured 1 of 5 mice
[6]
  Survival time: 0.3 days

## C/C(=N\N=C(/S)N(C)C1CCCCC1)c1ccccn1
[1]
  Survival time: 9.6 days
[3]
  Survival time: 3.7 days
[7]
  Survival time: 12.1 days
[8]
  Survival time: Cured 2 of 5 mice
[9]
  Survival time: Cured 4 of 5 mice

## CC1CCN(/C(S)=N/NC(C)c2ccccn2)CC1 (stereo unspecified)
[10]
  Survival time: Cured 1 of 5 mice
[11]
  Survival time: Toxic in 3 of 5 mice
[12]
  Survival time: Cured 1 of 5 mice
[13]
  Survival time: Toxic in 5 of 5 mice

## C/C(=N\NC(=S)N1CCCC1)c1ccccn1
[14]
  Survival time: Toxic in 5 of 5 mice
[3]
  Survival time: 8.9 days
[15]
  Survival time: Toxic in 5 of 5 mice

## CC(N/N=C(\S)NCc1ccccc1)c1ccccn1 (stereo unspecified)
[16]
  Survival time: 0.7 days
[17]
  Survival time: -0.1 days
[18]
  Survival time: 2.4 days

## CC(N/N=C(\S)N(C)C1CCCCC1)c1ccccn1 (stereo unspecified)
[3]
  Survival time: 3.7 days
[19]
  Survival time: 7.1 days
[20]
  Survival time: Cured 3 of 5 mice
[21]
  Survival time: Toxic in 1 of 5 mice
[22]
  Survival time: Toxic in 1 of 5 mice
[23]
  Survival time: Cured 2 of 5 mice
[24]
  Survival time: Toxic in 3 of 5 mice
[25]
  Survival time: Toxic in 1 of 5 mice
[6]
  Survival time: 2.9 days

## CC(N/N=C(\[SeH])N1CC2CCC(CC2)C1)c1ccccn1 (stereo unspecified)
[1]
  Survival time: 5.5 days
[26]
  Survival time: Cured 4 of 5 mice; toxic in 1 of 5 mice
[3]
  Survival time: 0.5 days
[7]
  Survival time: -0.3 days
[27]
  Survival time: Cured 2 of 5 mice
[6]
  Survival time: -0.3 days

## C/C(=N\N=C(/[SeH])N1CCCCCC1)c1ccccn1
[1]
  Survival time: 4.6 days
[28]
  Survival time: Cured 2 of 5 mice
[3]
  Survival time: 1.7 days
[4]
  Survival time: Cured 2 of 5 mice
[29]
  Survival time: 7.3 days

## C/C(=N\NC(=S)N(C)C)c1ccccn1
[14]
  Survival time: Toxic in 5 of 5 mice
[3]
  Survival time: 0.5 days

## CC(N/N=C(\S)N1CCCCCC1)c1ccccn1 (stereo unspecified)
[3]
  Survival time: 2.4 days
[30]
  Survival time: Toxic in 5 of 5 mice
[13]
  Survival time: Toxic in 5 of 5 mice

## CC(N/N=C(\S)N1CC2CCC(CC2)C1)c1ccccn1 (stereo unspecified)
[31]
  Survival time: 7.9 days
[5]
  Survival time: Cured 1 of 5 mice
[11]
  Survival time: Toxic in 3 of 5 mice
[22]
  Survival time: Cured 4 of 5 mice; toxic in 1 of 5 mice
[32]
  Survival time: Toxic in 5 of 5 mice
[13]
  Survival time: Toxic in 5 of 5 mice
[33]
  Survival time: Cured 2 of 5 mice

## CCOC(=O)N1CCN(/C(S)=N/N=C(\C)c2ccccn2)CC1
[14]
  Survival time: Toxic in 5 of 5 mice
[34]
  Survival time: Cured 2 of 5 mice; toxic in 2 of 5 mice
[15]
  Survival time: Toxic in 5 of 5 mice
